According to PMC8894198, “Biosynthetic Microcin J25 Exerts Strong Antibacterial, Anti-Inflammatory Activities, Low Cytotoxicity Without Increasing Drug-Resistance to Bacteria Target” (Frontiers in Immunology, 2022):
In brackets after ≈: the same amount, converted by molar mass. Where a SMILES comes first, the peptide text is derived from it. Bridges are numbered along the chain shown (N, C = ends).

Key:
E. coli LKFZ GL2 = assay: MIC/MBC, clinical isolate; format: cell-based; conditions: source pig stool
Protocol: (§1) The minimum inhibitory concentration (MIC) refers to the lowest concentration that can produce a significant hindrance to bacterial growth in a drug sensitivity test by adopting a broth dilution, with certain refinements and modifications based on the previous description ([25], [26]). In short, MccJ25 was dissolved in sterilized distilled water (SDW), serial 2-fold dilutions were prepared in Mueller-Hinton broth (MHB) through a 96-well microtiter plate, and the final concentration of MccJ25 was maintained in the range of 0.003125 to 256 μg/mL. Then, 2 μL of standard and clinically relevant overnight broth cultures of bacteria were inoculated into each well at a concentration of 5 × 10^6 CFU/mL. Microtiter plates were incubated at 37°C for one full day. Two groups were set up: positive (medium with inoculum) and negative (medium only) controls. The minimum bactericidal concentration (MBC) was measured in LB medium and refers to the first drug dilution value at which the initial bacterial concentration was reduced by 99.99%. The final analysis was determined by the results of three replicated and independent experiments. To further assess and clarify the antimicrobial activity of MccJ25, the protective ability against E. coli adhesion, live/dead assay, and killing curve were performed, the detailed methods were provided in Supplementary Materials .

E. coli LKFZ GZM4 = assay: MIC/MBC, clinical isolate; format: cell-based; conditions: source pig stool
Protocol: as §1

E. coli BRO 528 = assay: MIC/MBC, clinical isolate resistant to colistin sulfate, lincomycin and tilmicosin; format: cell-based; conditions: source broiler stool
Protocol: as §1

E. coli SWI 441 = assay: as above; format: cell-based; conditions: source pig stool
Protocol: as §1

E. coli SWI 531 = assay: as above; format: cell-based; conditions: source pig tissue
Protocol: as §1

E. coli SWI 541 = assay: as above; format: cell-based; conditions: source pig stool
Protocol: as §1

S. pullorum CVCC1791 = assay: MIC broth dilution, standard strain; format: cell-based, Salmonella pullorum; conditions: lowest MIC value, highly sensitive standard strain
Protocol: as §1

E. coli K88 [1] = format: cell-based; conditions: sublethal concentrations 0.25 × and 0.5 × MIC
Protocol: Mutation rates were based on rifampicin and refined ([28], [29]). Overnight cultures of E. coli K88 were diluted in 50 mL of LB broth at a ratio of 1:10,000 and grown for 3.5 h at 37°C. […] Eleven 1-mL replicates of each treatment group were grown at 37°C for 24 h. These cultures were then serially diluted and plated on LB agar plates containing 100 μg/mL rifampicin. Afterwards, plates were incubated at 37°C for 48 h. Single colonies on the plates were counted to determine CFU/mL. Mutagenesis rates were calculated using the bz-rates-mutation rate calculator (http://www.lcqb.upmc.fr/bzrates).

E. coli K88 [2] = assay: Sytox Green influx (membrane permeabilization); format: cell-based; conditions: 0.5 × to 5 × MIC, dose dependent; ex 485 nm, em 520 nm
Protocol: E. coli K88 cells were incubated at 37°C until growth reached the mid-log phase stage, and the cells were washed and resuspended in 10 mM NaH2PO4, pH 7.2 (2 × 10^7/mL). Cells were then incubated with […] Sytox Green for 15 min in a light-free environment.

[3] = tested on: E. coli K88 on IPEC-1 cells; assay: Protection against E. coli K88 adhesion and colonization of IPEC-1 cells; format: cell-based; conditions: 1, 2, 4, 8 × MIC for 3 h, then E. coli K88 for 2 h; plate counts; 6 biological replicates
Protocol: Capacity of against E. coli K88 adhesion and colonization of IPEC-1 cells was evaluated. IPEC-1 cells were cultured with or without MccJ25 for 3 h in the absence or presence of E. coli K88 for 2 h. The E. coli K88 adhesion and colonization in the IPEC-1 cells was determined. E. coli K88 (mean CFU/ml ± SEMs) were determined by plate counts, and determined from three individual experiments.
Figure S1. MccJ25 enhances intestinal epithelial cell to against E. coli K88 infection. […] IPEC-1 cells were cultured in the presence or absence of 1, 2, 4, 8 × MIC of MccJ25 for 3 h, then cells were treated with E. coli K88 for 2 h. The numbers of E. coli K88 were counted. E. coli K88 (mean CFU/ml ± SEMs) were determined by plate counts from 6 biological replicates. **P ≤ 0.01, ***P ≤ 0.001.

[4] = LB medium, 99.99% reduction, three independent experiments
[5] = broth dilution in MHB, 37°C, three independent experiments

`CC[C@H](C)[C@H](NC(=O)CNC(=O)[C@@H](NC(=O)[C@H](Cc1ccccc1)NC(=O)[C@H](Cc1ccc(O)cc1)NC(=O)[C@@H]1CCC(=O)NCC(=O)NCC(=O)N[C@@H](C)C(=O)NCC(=O)N[C@@H](Cc2c[nH]cn2)C(=O)N[C@@H](C(C)C)C(=O)N2CCC[C@H]2C(=O)N1)C(C)C)C(=O)NCC(=O)N[C@H](C(=O)N1CCC[C@H]1C(=O)N[C@H](C(=O)N[C@@H](CO)C(=O)N[C@@H](Cc1ccccc1)C(=O)N[C@@H](Cc1ccc(O)cc1)C(=O)NCC(=O)O)[C@@H](C)CC)[C@@H](C)O` [MccJ25, microcin J25] (GGAGHVPEYFVGIGTPISFYG-OH; lactam N-8 (inferred); C-terminus assumed) was tested, and the MBC (E. coli LKFZ GL2; [4]) was 0.500 µg/mL (≈ 0.237 µM), the MIC (E. coli LKFZ GL2; [5]) was 0.250 µg/mL (≈ 0.119 µM) and the MIC/MBC (E. coli LKFZ GL2; ratio) was 0.500. It also gave an MBC (E. coli LKFZ GZM4; [4]) of 1.000 µg/mL (≈ 0.475 µM), an MIC (E. coli LKFZ GZM4; [5]) of 0.250 µg/mL (≈ 0.119 µM) and an MIC/MBC (E. coli LKFZ GZM4; ratio) of 0.250. For the same compound, the MBC (E. coli BRO 528; [4]) was 2.000 µg/mL (≈ 0.949 µM), the MIC (E. coli BRO 528; [5]) was 0.500 µg/mL (≈ 0.237 µM) and the MIC/MBC (E. coli BRO 528; ratio) was 0.250. The MBC (E. coli SWI 441; [4]) was 0.500 µg/mL (≈ 0.237 µM), the MIC (E. coli SWI 441; [5]) was 0.060 µg/mL (≈ 0.0285 µM) and the MIC/MBC (E. coli SWI 441; ratio) was 0.120. The MBC (E. coli SWI 531; [4]) was 0.500 µg/mL (≈ 0.237 µM), the MIC (E. coli SWI 531; [5]) was 0.060 µg/mL (≈ 0.0285 µM) and the MIC/MBC (E. coli SWI 531; ratio) was 0.120. The MBC (E. coli SWI 541; [4]) was 2.000 µg/mL (≈ 0.949 µM), the MIC (E. coli SWI 541; [5]) was 0.500 µg/mL (≈ 0.237 µM) and the MIC/MBC (E. coli SWI 541; ratio) was 0.250. The MIC (S. pullorum CVCC1791) was 0.03 µg/mL (≈ 0.0142 µM), the “mutation rate compared to the control” value (E. coli K88 [1]) was “did not show a greater difference in mutation rate compared to the control” and the “Sytox Green fluorescence / membrane integrity” value (E. coli K88 [2]) was “membrane integrity was significantly disrupted”. The “E. coli K88 adhesion and colonization” value [3] was “significantly protects”.
